Reference: US20090043129A1 (priority 2005, published 2009)
Where two headings read alike, the source gives them in different places.

How the values were obtained:
[1] = biological target: T1, Fatty Acid Amide Hydrolase (FAAH) (Rattus norvegicus, UniProt P97612); assay: biochemical
T1 sequence (P97612 1-579): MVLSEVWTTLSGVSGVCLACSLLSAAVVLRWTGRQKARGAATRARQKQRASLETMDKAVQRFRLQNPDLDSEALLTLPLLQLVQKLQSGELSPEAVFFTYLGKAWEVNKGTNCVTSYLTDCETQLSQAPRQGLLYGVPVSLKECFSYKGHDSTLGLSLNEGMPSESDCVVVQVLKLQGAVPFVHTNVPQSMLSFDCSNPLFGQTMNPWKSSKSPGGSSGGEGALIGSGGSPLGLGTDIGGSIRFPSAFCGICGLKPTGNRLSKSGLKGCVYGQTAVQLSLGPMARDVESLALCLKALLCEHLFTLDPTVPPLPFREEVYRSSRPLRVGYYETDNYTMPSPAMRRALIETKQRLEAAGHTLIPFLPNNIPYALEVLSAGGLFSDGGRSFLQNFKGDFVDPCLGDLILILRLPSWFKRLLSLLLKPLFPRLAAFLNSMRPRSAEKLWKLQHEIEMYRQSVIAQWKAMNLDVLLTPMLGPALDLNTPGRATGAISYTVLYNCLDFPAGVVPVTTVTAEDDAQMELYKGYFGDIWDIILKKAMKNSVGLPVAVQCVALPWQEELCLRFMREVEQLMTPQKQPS
Method: Assay for Fatty Acid Amide Hydrolase (FAAH)
The effect of compounds on the enzymatic hydrolysis of [^14C]anandamide (6 μM) was studied using membranes prepared from rat brain incubated with increasing concentrations of compounds in 50 mM Tris-HCl, pH 9, for 30 minutes at 37° C. (Di Marzo et al., 2002). [^14C]ethanolamine produced from [^14C]anandamide hydrolysis was measured counting the scintillation of the aqueous phase after extraction of the incubation mixture with 2 volumes of CHCl3/CH3OH (2:1 by volume). […]

[2] = test system: Anandamide Membrane Transporter (AMT); assay: Anandamide uptake by RBL-2H3 cells; type: cell-based; details: anandamide uptake, read-out: AMT IC50
Method: Assay for the Anandamide Membrane Transporter (AMT)
The effect of the compounds on the uptake of anandamide by the RBL-2H3 cells was studied as described (Di Marzo et al., 2002). Cells were incubated with [^14C]anandamide (4 μM) for 5 minutes at 37° C., in the presence or absence of varying concentrations of the inhibitors. Residual [^14C]anandamide in the incubation media after extraction with CHCl3/CH3OH (2:1 by volume) was used as a measure of the anandamide that was taken up by cells. Data are expressed as the concentration that produces 50% of inhibition of anandamide uptake (IC50) calculated with GraphPad.

[3] = biological target: T2, human recombinant CB1 receptor (Homo sapiens, UniProt P21554); type: binding; design: purchased Perkin-Elmer; host or cells: COS cells
[4] = biological target: T3, human recombinant CB2 receptor (Homo sapiens, UniProt P34972); assay: CB2 binding, [3H]CP55,940 displacement, membranes from transfected COS cells; design: purchased Perkin-Elmer; host or cells: COS cells
[5] = biological target: T4, CB1 cannabinoid receptors (Mus musculus, UniProt P47746); assay: Forskolin-induced cyclic AMP in N18TG2 neuroblastoma cells; type: cell-based; details: for functional behaviour at CB1 receptors: cAMP
T4 construct: N18TG2 mouse neuroblastoma cells, which constitutively and selectively express the CB 1 cannabinoid receptors; endogenous in cells; host or cells: N18TG2 mouse neuroblastoma cells
Method: (§1) After incubation, 800 μl of methanol were added, cells were extracted and cyclic AMP was determined with a cyclic AMP assay kit (Amersham, UK), in accordance with the supplier's recommendations.

CB1 receptors = biological target: T5, CB1 receptors (Mus musculus, UniProt P47746); assay: [35S]GTP-γ-S binding, mouse brain membranes; type: biochemical
T5 construct: using mouse brain membranes containing CB1 receptors; from tissue; host or cells: mouse brain membranes
Method: These assays were performed as previously described (Thomas et al., 2005), using mouse brain membranes containing CB1 receptors or CHO cells stably over-expressing the human recombinant CB2 receptor (10 μg/ml protein), 0.7 nM [^35S]GTP-γ-S and 320 μM GDP, and a final assay volume of 250 μl. Results were compared to the potent CB1 and CB2 receptor agonist CP55940, purchased from Cayman Chemicals, Ann Arbour, Mich., USA.

[6] = biological target: T2, human recombinant CB1 receptor; assay: Forskolin-induced cAMP formation in CHO cells over-expressing hCB1; type: cell-based; design: expressed in transfected cells; host or cells: CHO cells
Method: as §1

[7] = biological target: T3, human recombinant CB2 receptor; assay: Forskolin-induced cAMP formation in CHO cells over-expressing hCB2; type: cell-based; design: expressed in transfected cells; host or cells: CHO cells (stably over-expressing)
Method: as §1

[8] = biological target: T3, human recombinant CB2 receptor; assay: [35S]GTP-γ-S binding, CHO cells over-expressing hCB2; type: biochemical; design: expressed in transfected cells; host or cells: CHO cells (stably over-expressing); details: for antagonism of CP55940-induced stimulation of GTP-γ-S binding (in words) / effect on GTP-γ-S-binding (in words): CHO hCB2; for functional behaviour at CB2 receptors: Test 1 and Test 2, CHO hCB2
Source text: Results were compared to the potent CB1 and CB2 receptor agonist CP55940, purchased from Cayman Chemicals, Ann Arbour, Mich., USA.

CB1 = biological target: T6, CB1 (Rattus norvegicus, UniProt P20272); assay: Preliminary selection with rat brain membranes; type: binding; details: rat brain and spleen membranes, read-out: CB1 (n.a. class, IC50 in preliminary selection)
T6 construct: from tissue; host or cells: rat brain membranes

CB2 = biological target: T7, CB2 (Rattus norvegicus, UniProt Q9QZN9); assay: Preliminary selection with rat spleen membranes; type: binding; details: rat brain and spleen membranes, read-out: CB2 (n.a. class, IC50 in preliminary selection)
T7 construct: from tissue; host or cells: rat spleen membranes
T7 sequence (Q9QZN9 1-360): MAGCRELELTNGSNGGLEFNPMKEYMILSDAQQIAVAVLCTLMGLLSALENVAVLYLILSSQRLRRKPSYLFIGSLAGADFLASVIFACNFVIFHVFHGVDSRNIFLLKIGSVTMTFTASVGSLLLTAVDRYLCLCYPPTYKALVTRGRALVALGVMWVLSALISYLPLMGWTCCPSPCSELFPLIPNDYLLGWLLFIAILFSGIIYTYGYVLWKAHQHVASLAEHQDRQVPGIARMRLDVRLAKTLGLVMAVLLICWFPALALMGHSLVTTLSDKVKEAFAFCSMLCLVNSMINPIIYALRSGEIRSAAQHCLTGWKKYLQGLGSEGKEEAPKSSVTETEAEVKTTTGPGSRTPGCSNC

[9] = recombinant human CB1, COS cell membranes
[10] = recombinant human CB2, COS cell membranes
[11] = forskolin-induced cAMP formation, CHO hCB2
[12] = rat brain membranes, [14C]anandamide 6 μM, read-out: FAAH IC50

T6 sequence (P20272 whole entry): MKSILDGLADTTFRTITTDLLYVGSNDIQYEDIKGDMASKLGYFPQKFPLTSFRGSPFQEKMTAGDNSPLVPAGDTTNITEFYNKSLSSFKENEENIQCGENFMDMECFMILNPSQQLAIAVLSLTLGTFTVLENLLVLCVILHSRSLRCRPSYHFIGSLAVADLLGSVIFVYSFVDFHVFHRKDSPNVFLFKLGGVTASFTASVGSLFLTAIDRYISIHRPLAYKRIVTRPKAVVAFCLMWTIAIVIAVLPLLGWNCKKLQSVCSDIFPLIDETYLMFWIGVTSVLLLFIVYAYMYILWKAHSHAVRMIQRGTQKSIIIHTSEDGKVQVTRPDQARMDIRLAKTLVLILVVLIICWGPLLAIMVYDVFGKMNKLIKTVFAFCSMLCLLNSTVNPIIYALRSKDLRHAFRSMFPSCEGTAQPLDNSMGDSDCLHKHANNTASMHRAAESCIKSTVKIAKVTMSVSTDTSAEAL
T5 sequence (P47746 whole entry): as the sequence (P20272 whole entry) above, with E95D counted along it
T4 sequence (P47746 whole entry): as the sequence (P20272 whole entry) above, with E95D counted along it
T2 sequence (P21554 whole entry): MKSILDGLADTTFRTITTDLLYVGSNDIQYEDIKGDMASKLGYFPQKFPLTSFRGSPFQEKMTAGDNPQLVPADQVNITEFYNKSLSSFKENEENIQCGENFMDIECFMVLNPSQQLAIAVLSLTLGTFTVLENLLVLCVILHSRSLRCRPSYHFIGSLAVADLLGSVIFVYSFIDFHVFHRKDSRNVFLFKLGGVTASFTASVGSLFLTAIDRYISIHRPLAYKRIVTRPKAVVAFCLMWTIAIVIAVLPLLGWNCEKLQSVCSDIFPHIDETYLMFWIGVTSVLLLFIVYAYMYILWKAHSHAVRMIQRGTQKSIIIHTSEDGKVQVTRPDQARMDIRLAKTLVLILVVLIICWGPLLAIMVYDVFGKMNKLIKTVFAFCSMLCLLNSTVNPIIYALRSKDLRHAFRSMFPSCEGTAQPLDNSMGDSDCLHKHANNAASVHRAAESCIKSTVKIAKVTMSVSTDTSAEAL
T3 sequence (P34972 whole entry): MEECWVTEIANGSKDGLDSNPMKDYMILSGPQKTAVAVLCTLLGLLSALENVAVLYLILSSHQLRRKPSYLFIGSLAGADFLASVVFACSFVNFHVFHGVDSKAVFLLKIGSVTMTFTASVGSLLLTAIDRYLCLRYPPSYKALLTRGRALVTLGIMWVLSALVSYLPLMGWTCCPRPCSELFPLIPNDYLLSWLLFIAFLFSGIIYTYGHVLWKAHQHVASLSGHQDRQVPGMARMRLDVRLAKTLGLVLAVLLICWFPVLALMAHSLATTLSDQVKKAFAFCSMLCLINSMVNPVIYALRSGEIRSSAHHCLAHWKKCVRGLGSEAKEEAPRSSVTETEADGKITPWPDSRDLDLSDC

CCCCCc1cc(O)cc(OCCCCCCCCCCC(=O)NCCO)c1 [Compound 24, 11-(3-Hydroxy-5-pentyl-phenoxy)-undecanoic acid (2-hydroxy-ethyl)-amide]
IC50 [1]: > 10 µM | IC50 [2]: 25 µM | melting point: 55 to 56 °C | Ki [3, 9]: 800 nM | Ki [4, 10]: 160 nM

CCCCCc1cc(O)cc(OCCCCCCCCCCC(=O)NC2CC2)c1 [Compound 25, 11-(3-Hydroxy-5-pentyl-phenoxy)-undecanoic acid cyclopropylamide]
IC50 [1]: > 10 µM | IC50 [2]: 17 µM | EC50 [5]: 0.013 µM | functional behaviour at CB1 receptors ([5]; N18TG2 cells): inverse agonist/antagonist | functional behaviour in GTP-γ-S-binding (CB1 receptors; mouse brain membranes): agonist action | IC50 (CB1 receptors; mouse brain membranes, read-out: IC50, stimulation of GTP-γ-S-binding): 0.15 µM | Ki [3]: 5.2 nM | Ki ([4]; values in nM): 13 nM | EC50 [6]: 1.6 µM | hCB1 % effect with 10 μM ([6]; 10 μM, forskolin-induced cAMP formation, CHO hCB1): 63% | functional behaviour at human recombinant CB1 ([6]; Test 1, CHO hCB1, inhibit forskolin-induced cAMP formation): partial agonists | EC50 [7]: > 10 µM | hCB2 % effect with 10 μM [7, 11]: 26% | effect on forskolin-induced cAMP formation (in words) ([7]; CHO hCB2): no significant effect | antagonism of CP55940-induced stimulation of GTP-γ-S binding (in words) [8]: block the effect of CP55940 | effect on GTP-γ-S-binding (in words) [8]: no significant stimulation or inhibition | functional behaviour at CB2 receptors [8]: neutral (“silent”) antagonists

O=C(CCCCCCCCCCOc1cccc(O)c1)Nc1ccc(O)cc1 [Compound 35, 11-(3-Hydroxy-phenoxy)-undecanoic acid (4-hydroxy-phenyl)-amide]
IC50 (CB1): > 10 µM | melting point: 121.2 °C

CCCCCCc1ccc(OCCCCCC(=O)NC2CC2)cc1O [Compound 40, 6-(3-Hydroxy-4-hexyl-phenoxy)-hexanoic acid cyclopropylamide]
IC50 ([1]; rat brain membranes, read-out: FAAH (n.a. class)): > 10 µM | functional behaviour at CB1 receptors ([5]; N18TG2 cells): inverse agonist/antagonist | EC50 ([5]; N18TG2 cells, forskolin 1 μM, read-out: half-maximum effect concentration, stimulation of forskolin-induced cAMP formation): 0.15 µM | melting point: 134.2 °C | Ki [3, 9]: 180 nM | Ki [4, 10]: 540 nM

CCCCCCc1ccc(OCCCCCCCCCCC(=O)Nc2ccc(O)cc2)cc1O [Compound 44, 11-(3-Hydroxy-4-hexyl-phenoxy)-undecanoic acid (4-hydroxy-phenyl)-amide]
IC50 [1, 12]: 50 µM | IC50 [2]: > 25 µM | IC50 (CB1): > 10 µM | melting point: 121.2 °C

CCCCCCc1ccc(OCCCCCCCCCCCCCCCC(=O)NCCO)cc1O [Compound 45, 16-(3-Hydroxy-4-hexyl-phenoxy)-hexadecanoic acid (2-hydroxy-ethyl)-amide]
IC50 (CB1): > 10 µM | IC50 (CB2): > 10 µM | melting point: 96.4 °C

CCCCCCc1ccc(OCCCCCCCCCCCCCCCC(=O)NC2CC2)cc1O [Compound 46, 16-(3-Hydroxy-4-hexyl-phenoxy)-hexadecanoic acid cyclopropylamide]
IC50 (CB1): > 10 µM | IC50 (CB2): > 10 µM | melting point: 114.3 °C

CCCCCCc1ccc(O)cc1OCCCCCCCCCCC(=O)NC1CC1 [Compound 52, 11-(2-Hexyl-5-hydroxy-phenoxy)-undecanoic acid cyclopropylamide]
IC50 [2]: 13 µM | IC50 (CB1 receptors): 0.1 µM | functional behaviour in GTP-γ-S-binding (CB1 receptors; mouse brain membranes): agonist action | Ki ([3]; values in nM): 210 nM | Ki ([4]; values in nM): 30 nM | EC50 ([6]; read-out: hCB1 EC50): 2.4 µM | hCB2 % effect with 10 μM [7, 11]: 5% | effect on forskolin-induced cAMP formation (in words) ([7]; CHO hCB2): no significant effect | EC50 ([7]; forskolin-induced cAMP formation, CHO hCB2, read-out: hCB2 EC50): > 10 µM | antagonism of CP55940-induced stimulation of GTP-γ-S binding (in words) [8]: block the effect of CP55940 | effect on GTP-γ-S-binding (in words) [8]: no significant stimulation or inhibition | functional behaviour at CB2 receptors [8]: neutral (“silent”) antagonists

CCCCCCc1ccc(O)cc1OCCCCCCCCCCC(=O)Nc1ccc(O)cc1 [Compound 53, 11-(2-Hexyl-5-hydroxy-phenoxy)-undecanoic acid (4-hydroxy-phenyl)-amide]
IC50 [1, 12]: 18 µM | IC50 [2]: > 25 µM | melting point: 108.7 °C | Ki [3]: 3300 nM | Ki [4, 10]: 2110 nM

CCCCCCc1ccc(O)cc1OCCCCCCCCCCCCCCCC(=O)NCCO [Compound 54, 16-(2-Hexyl-5-hydroxy-phenoxy)-hexadecanoic acid (2-hydroxy-ethyl)-amide]
IC50 (CB1): > 10 µM | IC50 (CB2): > 10 µM | melting point: 77.2 °C
